Laboratory results reported in the NIST ThermoML archive (doi:10.1021/je800110r).

Conditions: Liquid, Vibrating tube method

CCCCCCCCCC [decane]
mass density [kg/m3]
Conditions | 283.15 K | 293.14 K
635 kPa | – | 730.3
660 kPa | – | 730.5
720 kPa | – | 730.4
803 kPa | – | 730.5
26776 kPa | 755.1 | –
26808 kPa | 755.2 | –
26844 kPa | 755.1 | –
26869 kPa | 755.2 | –
26895 kPa | 755.3 | –
26931 kPa | 755.3 | –
26952 kPa | 755.2 | –
26974 kPa | 755.3 | –
27007 kPa | 755.3 | –
27036 kPa | 755.3 | –
27058 kPa | 755.3 | –
27090 kPa | 755.5 | –
27112 kPa | 755.3 | –
27145 kPa | 755.4 | –
27171 kPa | 755.4 | –
27193 kPa | 755.5 | –
27219 kPa | 755.3 | –
27242 kPa | 755.5 | –
27268 kPa | 755.6 | –
27295 kPa | 755.5 | –
27321 kPa | 755.4 | –
27347 kPa | 755.6 | –
27373 kPa | 755.5 | –
27611 kPa | 755.7 | –
27638 kPa | 755.7 | –
27665 kPa | 755.8 | –
27700 kPa | 755.7 | –
27726 kPa | 755.8 | –
27749 kPa | 755.7 | –
27784 kPa | 755.8 | –
27818 kPa | 755.8 | –
27842 kPa | 755.9 | –
27876 kPa | 755.9 | –
27908 kPa | 755.9 | –
27935 kPa | 755.9 | –
27963 kPa | 755.9 | –
27990 kPa | 755.9 | –
28021 kPa | 755.9 | –
28049 kPa | 755.9 | –
28076 kPa | 756 | –
28113 kPa | 756 | –
28134 kPa | 756 | –
28171 kPa | 756 | –
28206 kPa | 756 | –
28227 kPa | 756 | –
28251 kPa | 756.1 | –
28288 kPa | 756.1 | –
28322 kPa | 756.2 | –
28344 kPa | 756.1 | –
28377 kPa | 756 | –
28409 kPa | 756.2 | –
28431 kPa | 756.3 | –
28463 kPa | 756.1 | –
28486 kPa | 756.2 | –
28515 kPa | 756.3 | –
28541 kPa | 756.2 | –
28571 kPa | 756.3 | –
28597 kPa | 756.3 | –
28616 kPa | 756.2 | –
28645 kPa | 756.3 | –
28678 kPa | 756.4 | –
28701 kPa | 756.3 | –
28728 kPa | 756.4 | –
28766 kPa | 756.4 | –
28792 kPa | 756.5 | –
28822 kPa | 756.4 | –
28845 kPa | 756.5 | –
28872 kPa | 756.5 | –
28899 kPa | 756.5 | –
28925 kPa | 756.5 | –
28952 kPa | 756.4 | –
28987 kPa | 756.5 | –
29014 kPa | 756.5 | –
29040 kPa | 756.5 | –
29067 kPa | 756.5 | –
29114 kPa | 756.7 | –
29141 kPa | 756.6 | –
29203 kPa | 756.7 | –
29251 kPa | 756.7 | –
29278 kPa | 756.6 | –
29309 kPa | 756.6 | –
29341 kPa | 756.7 | –
29368 kPa | 756.7 | –
29392 kPa | 756.6 | –
29424 kPa | 756.7 | –
29460 kPa | 756.7 | –
29484 kPa | 756.8 | –
29508 kPa | 756.7 | –
29555 kPa | 756.8 | –
29591 kPa | 756.8 | –
29652 kPa | 756.9 | –
29688 kPa | 757 | –
30170 kPa | 757.2 | –
30200 kPa | 757.3 | –
30225 kPa | 757.3 | –
30263 kPa | 757.3 | –
30301 kPa | 757.1 | –
30327 kPa | 757.2 | –
30365 kPa | 757.4 | –
30399 kPa | 757.3 | –
30425 kPa | 757.3 | –
30461 kPa | 757.4 | –
30487 kPa | 757.4 | –
30512 kPa | 757.4 | –
30539 kPa | 757.4 | –
30561 kPa | 757.4 | –
30603 kPa | 757.4 | –
30638 kPa | 757.4 | –
30664 kPa | 757.4 | –
30704 kPa | 757.5 | –
30740 kPa | 757.4 | –
30771 kPa | 757.5 | –
30836 kPa | 757.5 | –
30867 kPa | 757.5 | –
30893 kPa | 757.6 | –
30975 kPa | 757.6 | –
31003 kPa | 757.6 | –
31031 kPa | 757.7 | –
31062 kPa | 757.8 | –
31099 kPa | 757.6 | –
31136 kPa | 757.6 | –
31162 kPa | 757.7 | –
31187 kPa | 757.9 | –
31218 kPa | 757.7 | –
31253 kPa | 757.8 | –
31284 kPa | 757.9 | –
31310 kPa | 757.9 | –
31337 kPa | 757.9 | –
31363 kPa | 757.8 | –
31377 kPa | 757.9 | –
31402 kPa | 757.9 | –
31424 kPa | 758 | –
31441 kPa | 758 | –
31463 kPa | 758 | –
31492 kPa | 758 | –
31509 kPa | 758 | –
31566 kPa | 757.9 | –
31598 kPa | 758 | –
31615 kPa | 758 | –
31631 kPa | 758 | –
31657 kPa | 758.2 | –
31680 kPa | 758 | –
31697 kPa | 758.1 | –
31724 kPa | 758.2 | –
31749 kPa | 758.2 | –
31769 kPa | 758.1 | –
31794 kPa | 758.1 | –
31815 kPa | 758.3 | –
31835 kPa | 758.2 | –
31855 kPa | 758.3 | –
31878 kPa | 758.3 | –
32055 kPa | 758.2 | –
32091 kPa | 758.2 | –
32141 kPa | 758.3 | –
32209 kPa | 758.4 | –
32230 kPa | 758.4 | –
32248 kPa | 758.4 | –
32268 kPa | 758.5 | –
32289 kPa | 758.5 | –
32312 kPa | 758.4 | –
32330 kPa | 758.4 | –
32357 kPa | 758.5 | –
32378 kPa | 758.5 | –
32405 kPa | 758.4 | –
32427 kPa | 758.6 | –
32445 kPa | 758.5 | –
32465 kPa | 758.5 | –
32490 kPa | 758.6 | –
32511 kPa | 758.4 | –
32535 kPa | 758.6 | –
32559 kPa | 758.5 | –
32597 kPa | 758.6 | –
32618 kPa | 758.6 | –
32636 kPa | 758.6 | –
32655 kPa | 758.6 | –
32682 kPa | 758.7 | –
32708 kPa | 758.8 | –
32727 kPa | 758.6 | –
32746 kPa | 758.7 | –
32767 kPa | 758.6 | –
32793 kPa | 758.6 | –
32811 kPa | 758.7 | –
32827 kPa | 758.8 | –
32850 kPa | 758.7 | –
32869 kPa | 758.7 | –
32894 kPa | 758.7 | –
32922 kPa | 758.8 | –
32944 kPa | 758.8 | –
32966 kPa | 758.7 | –
32989 kPa | 758.9 | –
33018 kPa | 758.8 | –
33037 kPa | 758.9 | –
33062 kPa | 758.7 | –
33085 kPa | 758.9 | –
33107 kPa | 758.9 | –
33133 kPa | 759 | –
33155 kPa | 758.9 | –
33178 kPa | 759 | –
33200 kPa | 759.1 | –
33220 kPa | 759 | –
33249 kPa | 759 | –
33275 kPa | 759 | –
33295 kPa | 759 | –
33544 kPa | 759.2 | –
33573 kPa | 759.1 | –
33592 kPa | 759.1 | –
33621 kPa | 759.2 | –
33651 kPa | 759.1 | –
33667 kPa | 759.3 | –
33690 kPa | 759.3 | –
33707 kPa | 759.1 | –
33737 kPa | 759.2 | –
33761 kPa | 759.3 | –
33781 kPa | 759.2 | –
33805 kPa | 759.2 | –
33822 kPa | 759.3 | –
33852 kPa | 759.2 | –
33873 kPa | 759.3 | –
33897 kPa | 759.2 | –
33922 kPa | 759.3 | –
33943 kPa | 759.4 | –
33964 kPa | 759.4 | –
33982 kPa | 759.3 | –
34002 kPa | 759.4 | –
34022 kPa | 759.4 | –
34045 kPa | 759.4 | –
34063 kPa | 759.5 | –
34081 kPa | 759.3 | –
34104 kPa | 759.4 | –
34127 kPa | 759.6 | –
34148 kPa | 759.4 | –
34169 kPa | 759.4 | –
34195 kPa | 759.5 | –
34214 kPa | 759.5 | –
34237 kPa | 759.6 | –
34264 kPa | 759.5 | –
34311 kPa | 759.6 | –
34330 kPa | – | 753.1
34339 kPa | 759.5 | –
34351 kPa | – | 753.1
34359 kPa | 759.6 | –
34380 kPa | – | 753.2
34400 kPa | – | 753.1
34412 kPa | – | 753.3
34420 kPa | – | 753.2
34428 kPa | – | 753.1
34437 kPa | – | 753.2
34447 kPa | 759.6 | –
34451 kPa | – | 753.2
34459 kPa | – | 753.2
34471 kPa | – | 753.2
34478 kPa | 759.7 | –
34481 kPa | – | 753.1
34490 kPa | 759.6 | –
34491 kPa | – | 753.1
34504 kPa | 759.7 | 753.2
34514 kPa | 759.7 | –
34517 kPa | – | 753.2
34527 kPa | – | 753.2
34530 kPa | 759.6 | –
34537 kPa | – | 753.3
34543 kPa | – | 753.2
34544 kPa | 759.7 | –
34545 kPa | – | 753.3
34551 kPa | 759.7 | –
34558 kPa | 759.6 | –
34561 kPa | 759.7 | –
34564 kPa | 759.8 | –
34567 kPa | 759.6 | –
